Literature values in US9474689B2, “Delamination resistant pharmaceutical glass containers containing active pharmaceutical ingredients” (Corning Incorporated, priority 2011, dated 2016).

Tests used:
Enterobacteriaceae = settings: in vitro
P. aeruginosa = settings: against P. aeruginosa
[1] = test system: soluble and transmembrane forms of TNFα
TNFβ (lymphotoxin-α) = biological target: T1, TNFβ (lymphotoxin-α) (Homo sapiens, UniProt P01374)
T1 sequence (P01374 35-205): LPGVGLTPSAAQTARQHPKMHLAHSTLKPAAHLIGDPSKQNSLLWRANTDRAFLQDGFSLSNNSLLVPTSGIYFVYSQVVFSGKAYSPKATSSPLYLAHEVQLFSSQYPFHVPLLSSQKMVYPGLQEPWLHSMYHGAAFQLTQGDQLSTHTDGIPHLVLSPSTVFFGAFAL

soluble and transmembrane forms of TNFα, sequence (P01375 77-233 limits assumed): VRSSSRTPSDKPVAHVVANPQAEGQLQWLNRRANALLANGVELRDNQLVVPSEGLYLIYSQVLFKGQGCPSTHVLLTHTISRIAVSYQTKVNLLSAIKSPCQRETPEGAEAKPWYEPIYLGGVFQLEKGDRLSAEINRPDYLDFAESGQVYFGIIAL

Compound	activity against Enterobacteriaceae (Enterobacteriaceae)	protein binding	post-antibiotic effects in vitro (P. aeruginosa)	binding affinity to TNFα [1]	neutralization of TNFβ (TNFβ (lymphotoxin-α))
C[C@@H](O)[C@H]1C(=O)N2C(C(=O)O)=C(S[C@@H]3CN[C@H](CNS(N)(=O)=O)C3)[C@H](C)[C@H]12 [Doripenem, doripenem]	excellent activity	low protein binding	about two hours	–	–
Infliximab: chimeric IgG1κ monoclonal antibody specific for human tumor necrosis factor-alpha	–	–	–	high affinity	does not neutralize
